Experimental data: patent publication US4673747A, “Aminoalkylphenoxy derivatives” (Ikeda Mohando Co., Ltd., priority 1984, dated 1987)

What was measured:
[1] = system: Gastric acid secretion induced by histamine; experiment: Inhibition effect on gastric acid secretion induced by histamine in pylorus ligated rat (subcutaneous); assay type: in vivo, rat (male Wistar); conditions: histamine 3 mg/kg SC, average of five runs, * p<0.05, ** p<0.01 vs control group, read-out: Secretion of Gastric Acid in Rat, Inhibition Rate (%); for inhibition in vivo at 0.2 mg/kg: 0.2 mg/kg SC
Description: A male Wistar rat having a body weight of about 160 g and which had not fed for 24 hours was anesthetized by an intraperitonea dose of 1.2 g/kg of uretane. After ligating of pylorus and esophagus, the gaster anterior was incised and fitted with a double polyethylene cannula. The wall of the stomach was rinsed with 5 ml of saline at 30 minute intervals, and the quantities of gastric acid contained in each rinsing solution were measured by titration.
The basal acid secretion was initially measured three times, and then 0.2 mg/kg or 0.5 mg/kg of each of the compounds of this invention was administered subcutaneously and 3 mg/kg of histamine was administered subcutaneously after the lapse of an additional 30 minutes.
The quantity of gastric acid secreated after the operation was measured continuously for 3 hours. Within that measurement interval, three time points at which the increase in acid secretion reached a maximum level were selected, and the average quantity of gastric acid secreted at those time points was taken as the increase in acid secretion, which was compared with the increase in acid secretion of the control group to calculate the percent inhibition for secretion of gastric acid. [formula] (The result was shown as the average value of five runs.)

Histamine H2-Receptor = biological target: T1, Histamine H2-Receptor (Cavia porcellus, UniProt P47747); design: species or system guinea pig (male Hartley); conditions: isolated guinea pig atrium; negative logarithm of molar concentration; heart beats, histamine dose-response; read-out: Antagonistic Action against Histamine H2-Receptor (pA2) Determined by Using Atrium isolated from Guinea Pig (converted)
T1 construct: from tissue; host or cells: isolated atrium of male Hartley guinea pig
Description: A male Hartley guinea pig having a body weight of about 400 g was killed by cervical dislocation, and the artrium thereof was isolated and was suspended in an organ bath containing 50 ml of a modified Ringer solution and subjected to a tension of 1 g. The number of heart beats under such condition was recorded using a polygraph.
Initially, from 1×10^-7 mol to 3×10^-4 mol of histamine was allowed to act accumulatively to depict the curve of the dosage-reaction relationship. Likewise, the curve of the dosage of histamine-reaction relationship was depicted in the presence of 5×10^-7 mol to 1×10^-6 mol of the test sample which was injected 3 minutes before. The negative logarithm (pA2) of the molar concentration of the test sample required for moving the curve obtained by single administration of histamine parallel to the right side by a two-times concentration was calculated.

[2] = system: Gastric acid secretion induced by histamine; experiment: Inhibitory effect of intraduodenally administered compounds on gastric acid secretion induced by histamine in rat; assay type: in vivo, rat (male Wistar); conditions: intraduodenal, rat; for ED50: 0.5 h, 30 minutes before SC histamine, read-out: Median effective dose (ED50), Gastric Acid Secretion; for Efficacy Ratio relative to Cimetidine (Cimetidine = 1): from ED50; for ED50 value: times as effective as Cimetidine (activity ratio): text discussing Table 2

T1 sequence (P47747 whole entry): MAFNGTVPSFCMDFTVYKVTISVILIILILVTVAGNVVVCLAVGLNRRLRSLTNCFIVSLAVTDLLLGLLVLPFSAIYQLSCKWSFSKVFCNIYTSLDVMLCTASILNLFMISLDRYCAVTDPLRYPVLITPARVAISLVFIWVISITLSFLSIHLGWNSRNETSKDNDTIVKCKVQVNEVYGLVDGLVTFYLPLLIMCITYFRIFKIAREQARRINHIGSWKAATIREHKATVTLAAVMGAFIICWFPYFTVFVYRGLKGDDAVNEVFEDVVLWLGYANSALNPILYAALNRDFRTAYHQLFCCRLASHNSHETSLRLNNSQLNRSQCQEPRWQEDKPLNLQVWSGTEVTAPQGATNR

| Structure (SMILES) | Kb (Histamine H2-Receptor) [nM] | inhibition in vivo at 0.2 mg/kg [1] [%] | ED50 [2] [mg/kg] | Efficacy Ratio relative to Cimetidine (Cimetidine = 1) [2] | ED50 value: times as effective as Cimetidine (activity ratio) [2] [times] | inhibition in vivo at 0.5 mg/kg ([1]; 0.5 mg/kg SC) [%] |
| --- | --- | --- | --- | --- | --- | --- |
| Nc1nnc(NC/C=C/COc2cccc(CN3CCCCC3)c2)s1 [Ex. 25, 2-amino-5-[4-<3-(1-piperidinomethyl)phenoxy>-trans-2-butenylamino]-1,3,4-thiadiazole] | 204 | 77 |  |  |  |  |
| CNC1=NS(=O)(=O)N=C1NC/C=C\COc1cccc(CN2CCCCC2)c1 [Reference Ex. 2, 3-methylamino-4-[4-<3-(1-piperidinomethyl)phenoxy>-cis-2-butenylamino]-1,2,5-thiadiazole-1,1-dioxide, reference compound] |  |  | 0.44 | 16.4 | 16 |  |
| NC1=NS(=O)(=O)N=C1NC/C=C\COc1cccc(CN2CCCCC2)c1 [Reference Ex. 1, 3-amino-4-[4-<3-(1-piperidinomethyl)phenoxy>-cis-2-butenylamino]-1,2,5-thiadiazole-1,1-dioxide, reference compound] |  |  | 0.2 | 36.0 | 36 |  |
| CNc1c(NC/C=C/COc2cccc(CN3CCCCC3)c2)c(=O)c1=O [Ex. 7, 1-methylamino-2-[4-<3-(1-piperidinomethyl)phenoxy>-trans-2-butenylamino]-1-cyclobuten-3,4-dione] | 513 | 28 |  |  |  |  |
| CNc1n[s+]([O-])nc1NC/C=C\COc1cccc(CN(C)C)c1 (stereo not drawn) [Ex. 22, 3-<4-(3-dimethylaminomethylphenoxy)-cis-2-butenylamino>-4-methylamino-1,2,5-thiadiazole-1-oxide] | 316 | 88 | 0.62 | 11.6 |  |  |
| O=c1c(NC/C=C\COc2cccc(CN3CCCCC3)c2)c(NCc2ccncc2)c1=O [Ex. 38] | 589 | 98 | 0.04 | 180.0 |  |  |
| Nc1n[s+]([O-])nc1NC/C=C\COc1cccc(CN2CCCCC2)c1 (stereo not drawn) [Ex. 15] | 437 |  | 0.066 | 109.1 | ~110 | 98 |
| Nc1n[s+]([O-])nc1NC/C=C\COc1cccc(CN2CCCC2)c1 (stereo not drawn) [Ex. 17, 3-amino-4-[4-<3-(1-pyrrolidinomethyl)phenoxy>-cis-2-butenylamino]-1,2,5-thiadiazole-1-oxide] | 97.7 | 86 | 0.82 | 8.8 |  |  |
| Cn1c(NC/C=C/COc2cccc(CN3CCCCC3)c2)cc(N)nc1=O [Ex. 14, 1-methyl-4-amino-6-[4-<3-(1-piperidinomethyl)phenoxy>-trans-2-butenylamino]-(1H)-pyrimidin-2-one] | 7080 | -9 |  |  |  |  |
| CC(C)Nc1n[s+]([O-])nc1NC/C=C\COc1cccc(CN2CCCCC2)c1 (stereo not drawn) [Ex. 19, 3-isopropylamino-4-[4-<3-(1-piperidinomethyl)phenoxy>-cis-2-butenylamino]-1,2,5-thiadiazole-1-oxide] | 2400 | 82 | 0.88 | 8.2 |  |  |
| CNc1nnc(NC/C=C\COc2cccc(CN3CCCC3)c2)s1 [Ex. 30, 2-methylamino-5-[4-<3-(1-pyrrolidinomethyl)-phenoxy>-cis-2-butenylamino]-1,3,4-thiadiazole] | 550 | 17 |  |  |  |  |

Now from value to compound, other results behind:

| Kb (Histamine H2-Receptor) [nM] | Structure (SMILES) | inhibition in vivo at 0.2 mg/kg [1] [%] | ED50 [2] [mg/kg] | Efficacy Ratio relative to Cimetidine (Cimetidine = 1) [2] | ED50 value: times as effective as Cimetidine (activity ratio) [2] [times] | inhibition in vivo at 0.5 mg/kg ([1]; 0.5 mg/kg SC) [%] |
| --- | --- | --- | --- | --- | --- | --- |
| 70.8 | CC1CCCN(Cc2cccc(OC/C=C\CNc3c(N)c(=O)c3=O)c2)C1 (stereo not drawn) [Ex. 34, 1-amino-2-[4-{3-<1-(3-methylpiperidino)methyl>phenoxy}-cis-2-butenylamino]-1-cyclobutene-3,4-dione] | 100 | 0.17 | 42.1 |  |  |
| 166 | CC1CCCCN1Cc1cccc(OC/C=C\CNc2c(N)c(=O)c2=O)c1 (stereo not drawn) [Ex. 33, 1-amino-2-[4-{3-<1-(2-methylpiperidino)-methyl>phenoxy}-cis-2-butenylamino]-1-cyclobutene-3,4-dione] | 70 | 0.4 | 18.0 |  |  |
| 776 | C#CCNc1c(NC/C=C\COc2cccc(CN3CCCCC3)c2)c(=O)c1=O [Ex. 4, 1-(2-propagylamino)-2-[4-<3-(1-piperidinomethyl)phenoxy>-cis-2-butenylamino]-1-cyclobuten-3,4-dione] | 66 |  |  |  |  |
| 646 | O=c1c(NC/C=C\COc2cccc(CN3CCCCC3)c2)c(NCc2cccnc2)c1=O [Ex. 37, 1-(3-pyridylmethylamino)-2-[4-<3-(1-piperidinomethyl)phenoxy>-cis-2-butenylamino]-1-cyclobutene-3,4-dione] | 90 | 0.074 | 97.3 |  |  |
| 178 | Nc1c(NC/C=C/COc2cccc(CN3CCCCC3)c2)c(=O)c1=O [Ex. 6, 1-amino-2-[4-<3-(1-piperidinomethyl)phenoxy>-trans-2-butenylamino]-1-cyclobuten-3,4-dione] | 25 |  |  |  |  |
| 229 | CN(C)Cc1cccc(OC/C=C\CNc2n[s+]([O-])nc2N)c1 (stereo not drawn) [Ex. 21, 3-<4-(3-dimethylaminomethylphenoxy)-cis-2-butenylamino>-4-amino-1,2,5-thiadiazole-1-oxide] | 99 | 2 | 3.6 |  |  |
| 1510 | CNc1nn(C)c(=O)nc1NC/C=C/COc1cccc(CN2CCCCC2)c1 [Ex. 12, 2-methyl-6-methylamino-5-[4-<3-(1-piperidinomethyl)phenoxy>-trans-2-butenylamino]-1,2,4-triazin-3-one] | 44 |  |  |  |  |
| 4680 | CNc1nnc(NC/C=C\COc2cccc(CN3CCCCC3)c2)s1 [Ex. 28, 2-methylamino-5-[4-<3-(1-piperidinomethyl)-phenoxy>-cis-2-butenylamino]-1,3,4-thiadiazole] | 75 | 0.62 | 11.6 |  |  |
| 9550 | CNc1nnc(NC/C=C/COc2cccc(CN3CCCCC3)c2)s1 [Ex. 26, 2-methylamino-5-[4-<3-(1-piperidinomethyl)-phenoxy>-trans-2-butenylamino]-1,3,4-thiadiazole] | 45 |  |  |  |  |
| 316 | Nc1nnc(NC/C=C\COc2cccc(CN3CCCC3)c2)s1 [Ex. 29, 2-amino-5-[4-<3-(1-pyrrolidinomethyl)-phenoxy>-cis-2-butenylamino]-1,3,4-thadiazole] | 36 |  |  |  |  |
| 389 | CCCNc1n[s+]([O-])nc1NC/C=C\COc1cccc(CN2CCCCC2)c1 (stereo not drawn) [Ex. 20, 3-n-propylamino-4-[4-<3-(1-piperidinomethyl)phenoxy>-cis-2-butenylamino]-1,2,5-thiadiazol-1-oxide] | 88 | 0.58 | 9.0 |  |  |
| 151 | Nc1c(NC/C=C\COc2cccc(CN3CCCC3)c2)c(=O)c1=O [Ex. 8, 1-amino-2-[4-<3-(1-pyrrolidinomethyl)phenoxy>-cis-2-butenylamino]-1-cyclobuten-3,4-dione] | 88 | 0.07 | 10.3 |  |  |
| 661 | Nc1n[nH]c(=O)nc1NC/C=C/COc1cccc(CN2CCCCC2)c1 [Ex. 11, 6-amino-5-[4-<3-(1-piperidinomethyl)phenoxy>-trans-2-butenylamino]-1,2,4-triazin-3-one] | 88 | 0.44 | 16.4 |  |  |
| 263 | CC1CCN(Cc2cccc(OC/C=C\CNc3c(N)c(=O)c3=O)c2)CC1 [Ex. 35, 1-amino-2-[4-{3-<1-(4-methylpiperidino)methyl>phenoxy}-cis-2-butenylamino]-1-cyclobutene-3,4-dione] | 98 | 0.38 | 18.9 |  |  |
